Measured values from publication PMC3025356, “Mechanism of the Ca^2+-Dependent Interaction between S100A4 and Tail Fragments of Nonmuscle Myosin Heavy Chain IIA” (Journal of Molecular Biology, 2011).
Read-outs that look alike come from different tables or passages of the source.

Tests used:
[1] = Isothermal titration calorimetry of Ca^2+ binding to S100A4 constructs
Method: Fig. 2 ITC records for Ca^2+ binding to S100A4 constructs: (a) 75 μM wild type at 30 °C; (b) 75 μM wild type at 10 °C; (c) 75 μM E33Q construct at 30 °C; (d) 300 μM D63N construct at 30 °C. For mutant constructs data at 10 °C, see Fig. S1. All preparations were dialysed against the same buffer of 20 mM NaCl, 10 mM Hepes, and 2 mM DTT (pH 7.5).
ITC data were collected using a VP-ITC microcalorimeter (MicroCal Ltd., Northampton, MA) and analysed by fitting to a single-site binding equation or a two-site binding equation using MicroCal Origin software.

[2] = 37 °C, 20 mM KCl, cited from earlier work
Method: At 10 °C, the first site became associated with negative enthalpy but retained a ...

[3] = Stopped-flow Quin-2 fluorescence, Ca^2+ dissociation from / binding to S100A4 constructs (no target)
From the text: In order to increase the signal-to-noise ratio of the Ca^2+ dissociation transients, we used Quin-2 as combined fluorescent indicator and high-affinity chelator.[19,20] These measurements confirmed that Ca^2+ dissociated from wild-type protein with a rate constant of 16 s^− 1 (Fig. 3a; cf. 20 s^− 1 for the tyrosine signal). Given the poor signal-to-noise ratio of the tyrosine signal, the difference is barely significant but may reflect the fact that the Quin-2 signal represents at least a two-step sequential reaction (Ca^2+ dissociation from S100AS4, followed by rapid binding to Quin-2).
Fig. 3 (a) Dissociation of Ca^2+ from wild-type S100A4 (black), E33Q mutant (blue), and D63N mutant (red), as monitored by Quin-2 fluorescence. […] The records for the mutants were vertically offset for clarity. (b) Ca^2+ binding to S100A4 as determined from the amplitude of the resolved transient (k ≈ 20 s^− 1) when 6.5 μM S100A4 was preincubated with various added [Ca^2+] and then mixed with 100 μM Quin-2. The amplitude was converted into a bound concentration from an independent calibration using the same Quin-2 solution and known free [Ca^2+]. […] While either model could account for the data, the measured stoichiometry from ITC (Table 1) favors the cooperative model.
Stopped-flow measurements were carried out using an SX18-MV apparatus (Applied Photophysics Ltd., Leatherhead, UK) with a dead time of 1.5 ms.[40] Records were generally captured on a logarithmic time base. Absorption (turbidity) measurements were usually recorded using a 10-mm pathlength, while fluorescence was recorded with a 2-mm pathlength for excitation and emission. The stated concentrations of components refer to the reaction chamber after mixing, unless otherwise indicated. Tyrosine fluorescence was excited at 280 nm, and the emission was collected through a UG11 bandpass filter plus a 305-nm longpass filter.[18] Fluorescein fluorescence was excited at 480 nm, and the emission was detected through a 515-nm longpass filter. Quin-2 fluorescence was measured by excitation at 336 nm, and emission was collected with a 455-nm longpass filter. For simultaneous recording of light scatter, a second channel was monitored through a UG11 filter. Rate constants were obtained by fitting to single-exponential or double-exponential functions using Kaleidagraph (Synergy Software) or Applied Photophysics Pro-Data software. Modeling of kinetic schemes was performed using Berkeley Madonna software.

[4] = test system: M200 filaments; conditions: cited from earlier work
From the text: Over the last two decades, there has been much interest in the role of the S100 Ca^2^+-binding protein family in the regulation of cellular events.[1,2] Identifying the specific targets of each of the 24 members[3] and deducing their mechanisms of action in vitro and in vivo remain to be a challenge. This is exemplified by S100A4 (also known as Mts1, metastasin, p9Ka, pEL98, calvasculin, and Fsp-1), which has been implicated in a wide range of cellular events and numerous diseases and binds to several different targets in vitro.[4–6] In particular, following early work,[7–9] there have been ma ... || A corresponding stoichiometry is also seen in the interaction of S100A4 with M200, where 2 mol of S100A4 monomer was required to solubilise 1 mol of M200 aggregate (when expressed as M200 polypeptide chain concentration) (Fig. 9b). […] These stoichiometries complicate the calculation of the equilibrium parameters for the models described in Schemes 1 and 2. If the binding sites remaine ...

n1 (Ca^2+ per monomer) ([1]; 10 °C, 75 μM protein (D63N 300 μM), 20 mM NaCl, 10 mM Hepes, 2 mM DTT, pH 7.5): 0.95 ± 0.014 Ca^2+ per monomer
n1 (Ca^2+ per monomer) ([1]; 30 °C, 75 μM protein (D63N 300 μM), 20 mM NaCl, 10 mM Hepes, 2 mM DTT, pH 7.5): 0.83 ± 0.2 Ca^2+ per monomer
stoichiometry (discussion) ([1]; ITC): one Ca^2+ per S100A4 monomer
Kd ([1]; first site, Ca^2+ binding, 30 °C, 75 μM protein (D63N 300 μM), 20 mM NaCl, 10 mM Hepes, 2 mM DTT, pH 7.5, read-out: K1d): 1.7 µM
Kd ([1]; first site, 10 °C, wild type and E33Q cooperative, read-out: K1d): 1.6 ± 0.4 µM
Kd ([1]; one Ca^2+ per S100A4 monomer, read-out: Kd for Ca^2+ (discussion)): 1.7 µM
Kd ([1]; read-out: Ca^2+ affinity of S100A4 dimer (discussion)): 2 to 6 µM
N2 (Ca^2+ per monomer) ([1]; second site, 30 °C): 0.42 ± 0.27 Ca^2+ per monomer
Kd ([1]; second site, 30 °C, read-out: K2d): 5.7 ± 1.1 µM
stoichiometry of the higher-affinity site ([1]; summary of Table 1): 0.8–0.9 Ca^2+ per monomer
Kd ([1]; temperatures of ≥ 30 °C, read-out: Kd of second site (discussion)): 6 µM
Kd ([3]; model for Fig. 3b data, read-out: Kd, EF2 site (alternative model)): 5 µM
Kd ([3]; model for Fig. 3b data, read-out: Kd, first Ca^2+ at EF2 of dimer (cooperative model)): 100 µM
Kd ([3]; model for Fig. 3b data, read-out: Kd, second Ca^2+ at EF2 of dimer (cooperative model)): 1.7 µM
rate constant without added Ca^2+ ([3]; no added Ca^2+, excess Quin-2): around 1 s^− 1
Kd ([3]; optically silent EF1 model for Fig. 3b data, read-out: Kd, EF1 site (alternative model)): 0.25 µM
Ca^2+ bound per monomer from calibrated Quin-2 amplitude ([3]; resolved signal, 6.5 μM S100A4, 100 μM Quin-2): one Ca^2+ bound per S100A4 monomer
Ca^2+ dissociation rate constant (Quin-2) ([3]; single exponential fit, no target): 16 s^− 1
rate constant of second slow phase of Ca^2+ dissociation ([3]; some preparations): 0.4–4 s^− 1
Substance: S100A4: recombinant S100A4 expressed in E. coli BL21(DE3)
Kd ([2]; read-out: Kd, site with negative enthalpy): 54 µM
Kd ([2]; read-out: Kd, site with positive enthalpy): 3.3 µM
kobs, Ca^2+ dissociation, no target (k− 1) ([3]; 10 μM S100A4 + 50 μM Ca^2+ mixed with 100 μM Quin-2, pH 7.5, 20 °C): 17 s^− 1
amplitude without added Ca^2+ ([3]; no added Ca^2+, excess Quin-2): 0.1 mol of Ca^2+ per mole of S100A4 monomer
dissociation of rod filaments ([4]; 20 mM NaCl): ineffective at dissociating rod filaments
S100A4 dimer required to disassemble 1 mol of NM-MHC IIA rods ([4]; ref 11 (Li et al.)): 1 mol of S100A4 dimer
